Among the data in BindingDB's records for PubMed 38330869 (National Institute of Pharmaceutical Education and …) are EC50 values, retold here.

The assay can be described thus: Inhibition of wild type influenza A virus H5N1 (A/chicken/Hubei/327/2004) matrix protein 2 transfected in yeast assessed as yeast growth restoration measured after 46 to 48 hrs.

With `Cc1cc(CNS(=O)(=O)c2ccc([N+](=O)[O-])cc2)c(C)o1`, the EC50 (in general, the midpoint of the concentration-response curve) stood at 1.71 µM.

With `Cc1cc(CNS(=O)(=O)c2ccc(Cl)cc2)c(C)o1`, the concentration for a half-maximal effect (EC50) is 3.07 µM.

With `Cc1cc(CNS(=O)(=O)c2ccc([N+](=O)[O-])cc2)c(C)s1`, the EC50 came out at 2.21 µM.

Take `Cc1cc(CNS(=O)(=O)c2ccc(C#N)cc2)c(C)s1`: the EC50 stood at 1.4 µM.

`Cc1cc(CNS(=O)(=O)c2ccc(Cl)cc2)c(C)s1`: the concentration for a half-maximal effect (EC50) was found to be 1.08 µM.

For the compound `Cc1cc(CNS(=O)(=O)c2ccc(Br)cc2)c(C)s1`, the EC50 came to 1.58 µM.

On to `O=[N+]([O-])c1ccc(S(=O)(=O)NCc2csc3ccccc23)cc1`, for which the 50% effective concentration (EC50) amounted to 3.44 µM.
